Assay results published in patent US4845244A, “Production of hydroxyphenylpropionic acid ester having a novel crystalline structure” (Sumitomo Chemical Company, Limited, priority 1985, dated 1989).

Tests used:
[1] = Solubility in cyclohexane (Table 2); format: physicochemical; conditions: for Solubility: cyclohexane
[2] = Solubility in water-insoluble recrystallization solvents (statement); format: physicochemical; conditions: water-insoluble solvent other than alicyclic or aliphatic hydrocarbons; in words

| Compound | Solubility ([1]; 20 °C) | Solubility ([1]; 30 °C) | Solubility ([1]; 40 °C) | Solubility ([1]; 50 °C) | Solubility ([1]; 55 °C) | Solubility ([1]; 60 °C) | solubility compared with αβ-crystals ([1]; in words, refers to Table 2) | solubility of the αβ-crystals in water-insoluble solvent [2] |
| --- | --- | --- | --- | --- | --- | --- | --- | --- |
| Cc1cc(CCC(=O)OCC(C)(C)C2OCC3(CO2)COC(C(C)(C)COC(=O)CCc2cc(C)c(O)c(C(C)(C)C)c2)OC3)cc(C(C)(C)C)c1O (centres unmarked) [δ-Crystal, 3,9-bis{2-[3-(3-tert-butyl-4-hydroxy-5-methylphenyl)propionyloxy]-1,1-dimethylethyl}-2,4,8,10-tetraoxaspiro[5.5]undecane] | 0.06 g/100 g cyclohexane | 0.1 g/100 g cyclohexane | 0.2 g/100 g cyclohexane | 0.5 g/100 g cyclohexane | 1.1 g/100 g cyclohexane | 2.1 g/100 g cyclohexane | lower solubility than that of the αβ-crystals | – |
| Cc1cc(CCC(=O)OCC(C)(C)C2OCC3(CO2)COC(C(C)(C)COC(=O)CCc2cc(C)c(O)c(C(C)(C)C)c2)OC3)cc(C(C)(C)C)c1O (stereo not drawn) [α.eta.-Crystal, 3,9-bis{2-[3-(3-tert-butyl-4-hydroxy-5-methylphenyl)propionyloxy]-1,1-dimethylethyl}-2,4,8,10-tetraoxaspiro[5.5]undecane] | 0.2 g/100 g cyclohexane | 0.5 g/100 g cyclohexane | 1.4 g/100 g cyclohexane | 4.1 g/100 g cyclohexane | 8.5 g/100 g cyclohexane | > 60 g/100 g cyclohexane | – | so high that the δ-crystals containing substantially no αβ-crystals can be obtained even at room temperature |
